Laboratory results published in patent US8604040B2 (priority 2010, dated 2013).
Read-outs that look alike come from different tables or passages of the source. Marks after values point to notes of the source that are not given here.

What was measured:
[1] = test system: Phytophthora infestans; type: in vivo; settings: protective, young tomato plants, active ingredient concentration 500 ppm, evaluation 7 days after inoculation
[2] = log P by HPLC (EEC Directive 79/831 Annex V.A8); type: physicochemical
[3] = [b] LC-MS, acidic range, pH 2.7, 0.1% aqueous formic acid and acetonitrile
[4] = [c] LC-MS, neutral range, pH 7.8, 0.001 molar aqueous ammonium hydrogencarbonate and acetonitrile
[5] = [a] HPLC, acidic range, pH 2.3, 0.1% aqueous phosphoric acid and acetonitrile
[6] = HPLC (LC-MS), [b] LC-MS, acidic range, pH 2.7, 0.1% aqueous formic acid and acetonitrile, read-out: log P
[7] = HPLC, pH 2.7, given in the preparation examples, read-out: logP (pH2.7)

SMILES | efficacy [1] [%] | log P [2, 3] | log P [2, 4] | log P [2, 5] | further results
Cc1cc(C(F)(F)F)nn1CC(=O)N1CCN(c2cccc(C(=O)N(C)Cc3ccccc3Br)n2)CC1 [Example 3] | 88 | 3.44 | 3.46 |  | 
Cc1cc(C(F)(F)F)nn1CC(=O)N1CCN(c2cccc(C(=O)OC3C=CCCC3)n2)CC1 (stereo not drawn) [Example 68] | 94 | 3.67 | 3.7 |  | 
Cc1cc(C(F)(F)F)nn1CC(=O)N1CCN(c2cccc(C(=O)OC3CCCCC3)n2)CC1 [Example 69] | 71 | 3.96 |  |  | 
Cc1cc(C(F)(F)F)nn1CC(=O)N1CCN(c2cccc(C(=O)OC3CCCc4ccccc43)n2)CC1 (stereo not drawn) [Example 70] | 97 | 4.19 | 4.2 |  | 
C=CCCCCOC(=O)c1cccc(N2CCN(C(=O)Cn3nc(C(F)(F)F)cc3C)CC2)n1 [Example 71] | 76 |  | 3.95 |  | 
Cc1cc(C(F)(F)F)nn1CC(=O)N1CCN(c2cccc(C(=O)OCc3ccccc3F)n2)CC1 [Example 73] | 71 | 3.58 | 3.6 |  | 
Cc1cc(C(F)(F)F)nn1CC(=O)N1CCN(c2cccc(C(=O)Oc3cccc4ccccc34)n2)CC1 [Example 75] | 71 | 3.99 | 4 |  | 
O=C(Oc1cccc2ccccc12)c1cccc(C2CCN(C(=O)Cn3nc(C(F)F)cc3C(F)F)CC2)n1 [Example 110] |  | 3.82^[b] |  |  | 
O=C(Oc1ccc2ccccc2c1)c1cccc(C2CCN(C(=O)Cn3nc(C(F)F)cc3C(F)F)CC2)n1 [Example 111] |  | 3.86^[b] |  |  | 
O=C(SC1CCCCC1)c1cccc(C2CCN(C(=O)Cn3nc(C(F)F)cc3C(F)F)CC2)n1 [Example 112] |  |  | 4.65 | 4.63 | 
O=C(SCc1c(F)cccc1F)c1cccc(C2CCN(C(=O)Cn3nc(C(F)F)cc3C(F)F)CC2)n1 [Example 113] |  |  | 4.13 | 4.12 | 
O=C(Sc1cccc2ccccc12)c1cccc(C2CCN(C(=O)Cn3nc(C(F)F)cc3C(F)F)CC2)n1 [Example 114] |  |  | 4.42 | 4.4 | 
O=C(OC1CCCCC1F)c1cccc(C2CCN(C(=O)Cn3nc(C(F)F)cc3C(F)F)CC2)n1 (stereo not drawn) [Example 115] |  | 3.37^[b] |  |  | 
Cc1cc(C(F)(F)F)nn1CC(=O)N1CCC(c2cccc(C(=O)OC3CCCCC3F)n2)CC1 (stereo not drawn) [Example 116] |  | 3.43^[b] |  |  | 
Cc1cc(C(F)(F)F)nn1CC(=O)N1CCN(c2cccc(C(=O)OCc3c(F)cc(F)cc3F)n2)CC1 [Example 118] | 93 | 3.68 | 3.71 |  | 
O=C(OC1CCCCC1)c1cccc(N2CCN(C(=O)Cn3nc(C(F)F)cc3C(F)F)CC2)n1 [Example 119] |  |  | 4.65 | 4.61 | 
O=C(Sc1cccc2ccccc12)c1cccc(N2CCN(C(=O)Cn3nc(C(F)F)cc3C(F)F)CC2)n1 [Example 120] | 93 |  | 4.28 | 4.25 | 
O=C(Sc1ccccc1)c1cccc(C2CCN(C(=O)Cn3nc(C(F)F)cc3C(F)F)CC2)n1 [Example 121] |  |  | 3.85 | 3.8 | 
O=C(Sc1ccccc1)c1cccc(N2CCN(C(=O)Cn3nc(C(F)F)cc3C(F)F)CC2)n1 [Example 122] |  |  | 3.81 | 3.79 | 
O=C(Sc1cccs1)c1cccc(C2CCN(C(=O)Cn3nc(C(F)F)cc3C(F)F)CC2)n1 [Example 123] | 93 |  | 3.77 | 3.76 | 
O=C(Sc1cccs1)c1cccc(N2CCN(C(=O)Cn3nc(C(F)F)cc3C(F)F)CC2)n1 [Example 124] |  |  | 3.75 | 3.73 | 
O=C(SCc1c(F)cccc1F)c1cccc(N2CCN(C(=O)Cn3nc(C(F)F)cc3C(F)F)CC2)n1 [Example 125] |  |  | 4.14 | 4.11 | 
O=C(SCc1ccccc1Cl)c1cccc(C2CCN(C(=O)Cn3nc(C(F)F)cc3C(F)F)CC2)n1 [Example 126] |  |  | 4.49 | 4.44 | 
O=C(SCc1ccccc1Cl)c1cccc(N2CCN(C(=O)Cn3nc(C(F)F)cc3C(F)F)CC2)n1 [Example 127] |  |  | 4.44 | 4.42 | 
O=C(SCc1ccc(F)cc1)c1cccc(C2CCN(C(=O)Cn3nc(C(F)F)cc3C(F)F)CC2)n1 [Example 128] |  |  | 4.15 | 4.1 | 

SMILES | efficacy [1] [%] | log P [2, 3] | log P [2, 4] | log P [2, 5] | further results
CCCCCCCSC(=O)c1cccc(C2CCN(C(=O)Cn3nc(C(F)F)cc3C(F)F)CC2)n1 [Example 129] |  |  | 5.44 | 5.43 | 
CCCCCCCSC(=O)c1cccc(N2CCN(C(=O)Cn3nc(C(F)F)cc3C(F)F)CC2)n1 [Example 130] |  |  | 5.38 | 5.4 | 
CCOC(=O)c1cccc(C2CCN(C(=O)Cn3nc(C(F)F)cc3C(F)F)CC2)n1 [Example 131, Ethyl 6-(1-{[3,5-bis(difluoromethyl)-1H-pyrazol-1-yl]acetyl}piperidin-4-yl)pyridine-2-carboxylate] |  |  |  |  | chromatographic logP [2, 6]: 2.68; chromatographic logP [2, 7]: 2.68
CCOC(=O)c1cccc(C2CCN(C(=O)Cn3nc(C(F)(F)F)cc3C)CC2)n1 [Example 132] |  | 2.73^[b] |  |  | 
Cc1ccccc1CSC(=O)c1cccc(C2CCN(C(=O)Cn3nc(C(F)F)cc3C(F)F)CC2)n1 [Example 133] |  |  | 4.41 | 4.39 | 
CCOC(=O)c1cccc(C2CCN(C(=O)Cn3nc(C(F)(F)F)cc3C)CC2)n1 [Example 134] |  | 2.74^[b] |  |  | 
O=C(O)c1cccc(C2CCN(C(=O)Cn3nc(C(F)F)cc3C(F)F)CC2)n1 [Example 135, 6-(1-{[3,5-Bis(difluoromethyl)-1H-pyrazol-1-yl]acetyl}piperidin-4-yl)pyridine-2-carboxylic acid] |  |  |  |  | chromatographic logP [2, 6]: 1.55; chromatographic logP [2, 7]: 1.55
O=C(OCc1ccccc1F)c1cccc(N2CCN(C(=O)Cn3nc(C(F)F)cc3C(F)F)CC2)n1 [Example 137] | 93 |  | 3.49 | 3.47 | 
O=C(OCc1c(F)cccc1F)c1cccc(N2CCN(C(=O)Cn3nc(C(F)F)cc3C(F)F)CC2)n1 [Example 138] | 93 |  | 3.43^[a]; 3.43^[c] | 3.43^[a]; 3.43^[c] | 
O=C(Oc1cccc2c1CCCC2)c1cccc(N2CCN(C(=O)Cn3nc(C(F)F)cc3C(F)F)CC2)n1 [Example 139] |  |  | 4.29 | 4.25 | 
O=C(Oc1cccc2ccccc12)c1cccc(N2CCN(C(=O)Cn3nc(C(F)F)cc3C(F)F)CC2)n1 [Example 141] | 71 |  | 3.88^[c] |  | 
O=C(OC1C=CCCC1)c1cccc(N2CCN(C(=O)Cn3nc(C(F)F)cc3C(F)F)CC2)n1 (stereo not drawn) [Example 142] | 83 |  | 3.6 | 3.56 | 
CN(C(=O)c1cccc(N2CCN(C(=O)Cn3nc(C(F)F)cc3C(F)F)CC2)n1)C1CCCc2ccccc21 (stereo not drawn) [Example 143] | 71 |  | 3.45 | 3.42 | 
O=C(NCc1ccc(Cl)cc1Cl)c1cccc(N2CCN(C(=O)Cn3nc(C(F)F)cc3C(F)F)CC2)n1 [Example 144] |  |  | 3.7 | 3.68 | 
Cc1ccccc1CSC(=O)c1cccc(N2CCN(C(=O)Cn3nc(C(F)(F)F)cc3C)CC2)n1 [Example 145] |  | 4.52 | 4.55 |  | 
O=C(NCc1ccccc1Cl)c1cccc(N2CCN(C(=O)Cn3nc(C(F)F)cc3C(F)F)CC2)n1 [Example 146] |  |  | 3.26 | 3.24 | 
Cc1cc(C(F)(F)F)nn1CC(=O)N1CCN(c2cccc(C(=O)N(C)C3CCCc4ccccc43)n2)CC1 (stereo not drawn) [Example 147] |  | 3.55 | 3.59 |  | 
CN(Cc1ccccc1Cl)C(=O)c1cccc(N2CCN(C(=O)Cn3nc(C(F)F)cc3C(F)F)CC2)n1 [Example 148] |  |  | 3.25 | 3.22 | 
Cc1cc(C(F)(F)F)nn1CC(=O)N1CCN(c2cccc(C(=O)SCc3c(F)cccc3F)n2)CC1 [Example 149] |  | 4.11 | 4.29 |  | 
CC(C)(C)OC(=O)N1CCC(O)(c2cccc(Br)n2)CC1 [tert-Butyl 4-(6-bromopyridin-2-yl)-4-hydroxypiperidine-1-carboxylate] |  |  |  |  | chromatographic logP [2, 7]: 3.05
CC(C)(C)OC(=O)N1CCN(c2cccc(Br)n2)CC1 [tert-Butyl 4-(6-bromopyridin-2-yl)piperazine-1-carboxylate] |  |  |  |  | chromatographic logP [2, 7]: 4.08
CCOC(=O)c1cccc(N2CCN(C(=O)OC(C)(C)C)CC2)n1 [tert-Butyl 4-[6-(ethoxycarbonyl)pyridin-2-yl]piperazine-1-carboxylate] |  |  |  |  | chromatographic logP [2, 7]: 3.32
CC(C)(C)OC(=O)N1CC=C(c2cccc(Br)n2)CC1 [tert-Butyl 6-bromo-3′,6′-dihydro-2,4′-bipyridine-1′(2′H)-carboxylate] |  |  |  |  | chromatographic logP [2, 7]: 4.14
CN(C(=O)c1cccc(C2CCN(C(=O)OC(C)(C)C)CC2)n1)C1CCCc2ccccc21 (stereo not drawn) [tert-butyl 4-{6-[methyl(1,2,3,4-tetrahydronaphthalen-1-yl)carbamoyl]pyridin-2-yl}piperidine-1-carboxylate] |  |  |  |  | chromatographic logP [2, 7]: 5.09
